PubChem BioAssay (NCI)
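Method: 48-hour compound exposure of cells in 96-well plates, five concentrations, linear interpolation of endpoints. At the GI50, growth is halved. TGI denotes the concentration required for complete inhibition of growth.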

Legend:
Test in all cases: growth of human tumour cells (NCI), 48 h
SK-OV-3 ovarian = tested on: SK-OV-3 ovarian
786-0 renal = tested on: 786-0 renal
HL-60(TB) leukemia = tested on: HL-60(TB) leukemia
NCI-H460 lung = tested on: NCI-H460 lung
UACC-62 melanoma = tested on: UACC-62 melanoma
NCI-H226 lung = tested on: NCI-H226 lung
SK-MEL-28 melanoma = tested on: SK-MEL-28 melanoma
KM12 colon = tested on: KM12 colon
BT-549 breast = tested on: BT-549 breast
SNB-19 CNS = tested on: SNB-19 CNS
IGROV1 ovarian = tested on: IGROV1 ovarian
SR leukemia = tested on: SR leukemia
SW-620 colon = tested on: SW-620 colon
HCC-2998 colon = tested on: HCC-2998 colon
TK-10 renal = tested on: TK-10 renal
ACHN renal = tested on: ACHN renal
MALME-3M melanoma = tested on: MALME-3M melanoma
UACC-257 melanoma = tested on: UACC-257 melanoma
SF-268 CNS = tested on: SF-268 CNS
NCI-H23 lung = tested on: NCI-H23 lung
EKVX NSCLC = tested on: EKVX NSCLC
RPMI-8226 leukemia = tested on: RPMI-8226 leukemia
PC-3 prostate = tested on: PC-3 prostate
MDA-MB-435 = tested on: MDA-MB-435
SK-MEL-2 melanoma = tested on: SK-MEL-2 melanoma
SF-539 CNS = tested on: SF-539 CNS
CAKI-1 renal = tested on: CAKI-1 renal
HCT-116 colon = tested on: HCT-116 colon
OVCAR-8 ovarian = tested on: OVCAR-8 ovarian

Compound: CC(C)N=C([Se])NC(=O)c1ccccc1
- GI50 (SK-OV-3 ovarian): 0.426 µM
- TGI (SK-OV-3 ovarian): 1.3 µM
- GI50 (786-0 renal): 1.8 µM
- TGI (786-0 renal): 3.25 µM
- GI50 (HL-60(TB) leukemia): 2.07 µM
- TGI (HL-60(TB) leukemia): 5.37 µM
- GI50 (NCI-H460 lung): 2.93 µM
- TGI (NCI-H460 lung): 11.6 µM
- GI50 (UACC-62 melanoma): 1.96 µM
- TGI (UACC-62 melanoma): 4.07 µM
- GI50 (NCI-H226 lung): 2.11 µM
- TGI (NCI-H226 lung): 5.94 µM
- GI50 (SK-MEL-28 melanoma): 1.94 µM
- TGI (SK-MEL-28 melanoma): 3.62 µM
- GI50 (KM12 colon): 3 µM
- TGI (KM12 colon): 8.39 µM
- GI50 (BT-549 breast): 1.61 µM
- TGI (BT-549 breast): 3.55 µM
- GI50 (SNB-19 CNS): 2.91 µM
- TGI (SNB-19 CNS): 10.8 µM
- GI50 (IGROV1 ovarian): 1.76 µM
- TGI (IGROV1 ovarian): 3.49 µM
- GI50 (SR leukemia): 2.06 µM
- TGI (SR leukemia): 5.23 µM
- GI50 (SW-620 colon): 2.06 µM
- TGI (SW-620 colon): 4.63 µM
- GI50 (HCC-2998 colon): 1.92 µM
- TGI (HCC-2998 colon): 3.67 µM
- GI50 (TK-10 renal): 1.7 µM
- TGI (TK-10 renal): 3.17 µM
- GI50 (ACHN renal): 1.92 µM
- TGI (ACHN renal): 3.41 µM
- GI50 (MALME-3M melanoma): 1.63 µM
- TGI (MALME-3M melanoma): 3.09 µM
- GI50 (UACC-257 melanoma): 1.92 µM
- TGI (UACC-257 melanoma): 4.06 µM
- GI50 (SF-268 CNS): 2.9 µM
- TGI (SF-268 CNS): 8.27 µM
- GI50 (NCI-H23 lung): 1.93 µM
- TGI (NCI-H23 lung): 4.13 µM
- GI50 (EKVX NSCLC): 1.77 µM
- TGI (EKVX NSCLC): 3.32 µM
- GI50 (RPMI-8226 leukemia): 2.64 µM
- TGI (RPMI-8226 leukemia): 7.83 µM
- GI50 (PC-3 prostate): 2.01 µM
- TGI (PC-3 prostate): 4.37 µM
- GI50 (MDA-MB-435): 2.69 µM
- TGI (MDA-MB-435): 8.5 µM
- GI50 (SK-MEL-2 melanoma): 2.08 µM
- TGI (SK-MEL-2 melanoma): 4.88 µM
- GI50 (SF-539 CNS): 1.8 µM
- TGI (SF-539 CNS): 3.21 µM
- GI50 (CAKI-1 renal): 1.67 µM
- TGI (CAKI-1 renal): 3.04 µM
- GI50 (HCT-116 colon): 1.88 µM
- TGI (HCT-116 colon): 3.49 µM
- GI50 (OVCAR-8 ovarian): 1.88 µM
- TGI (OVCAR-8 ovarian): 3.56 µM
